Earlier results as cited in patent US8679507B2, “Testosterone olfaction” (priority 2012, dated 2014).

Tested on: human females
Conditions: female college students, upper lip exposed; follicular phase

In the case of C[C@]12CC[C@@H](O)C[C@@H]1CC[C@@H]1[C@@H]2CC[C@]2(C)C=CC[C@@H]12 [androstenol], the “frequency of the LH pulse” value is listed as “decreased”.
